# In patent US7977403B2, “Antiseptic containing silicone elastomers” (Bayer Innovation GmbH, priority 2006, dated 2011):
# System: L 929 mouse fibroblast cells
# Test: Biocompatibility (cytotoxicity) test of material extract, DIN ISO 10993-5
# Assay type: cell-based
# Settings: final concentration 1%, 48 h
# Method: Biocompatibility Tests as Specified in DIN ISO 10993-5 (1999), EN 30993-5 (1994) The catheter shafts from Example 13 were for this purpose extracted non-sterile at 37° C. and 5% pCO2 in extraction medium (DMEM including antibiotics without FCS) for 24 h. The surface-volume ratio was 1 cm^2/ml of extraction medium. After completion of the extraction, the extraction medium was sterilized by filtration and supplemented with sterile FCS (final concentration: 10% FCS in the extraction medium). The FCS-supplemented extraction medium was put sterile on precultured L 929 mouse fibroblast cells and incubated at 37° C., 5% pCO2 for 48 h. The extract was subjected to quadruplicate parallel testing. Triton X 100 was added to the L929 cells used as toxic positive control (final concentration 1%). Cell culture medium served as non-toxic negative control. After the 48-hour incubation, the release of lactate dehydrogenase (LDH) in the cell culture supernatant was measured by a photometric method. The cells were then subjected to alkaline lysis and the protein content was measured by the Bradford method. The cells were fixed and stained with methylene blue to determine the cell count. After acidic extraction of the methylene blue, the dye content was ascertained by photometry and the extinction was compared with a standard curve in order to determine the cell count on the basis of the dye concentration. Results are shown at FIG. 12.
substance,measurement,setting,value
Triton X 100,Protein content relative to negative control,Bradford method,6.8 % of the negative control value
same,Specific LDH activity increase compared with the negative control,cell culture supernatant,more than 31 fold
same,Cell count relative to negative control,methylene blue,0.5 % of the negative control value
